From PubChem BioAssay AID2823 (Broad Institute, 2010)
Active and inactive are the calls of the source. How the calls were made is not given here.

These molecules were tested against RanGTP-importin-beta complex (human Ran / KPNB1) (assay: disruptors of RanGTP/KPNB1 binding – biochemical, FRET, CFP/YFP, cell-free homogeneous, confirmation (AID 2823)). Details: CFP-Ran/YFP-importin-beta FRET ratio.
With `CCOC(=O)C1=C(C)NC2=C(C(=O)C(C(=O)OCC)C(c3ccccc3OC)C2)C1c1ccccn1` (centres undefined) the IC50 was 26.2 µM. For `COc1cc(C2C3CN(C)CC=C3C(C#N)=C(N)C2(C#N)C#N)ccc1OC(C)C` (centres undefined), the IC50 was 12.1 µM. For `O=c1[nH]c2c(s1)C(c1ccco1)C1C3CCC(C3)C1S2` (centres undefined), the IC50 was > 50 µM (inactive). `COc1ccc(Cn2c(=N)c(C(=O)NC3CCCCC3)cc3c(=O)n4ccccc4nc32)cc1` showed an IC50 of 47.7 µM. `Fc1ccccc1N1CC(c2ccccc2)C(c2cccs2)=N1` (centres undefined) gave an IC50 of 20.8 µM. `CCc1cc(=O)oc2c(CN3CCN(C)CC3)c(O)c(Cl)cc12` was tested, and the IC50 was 27.1 µM. In the case of `Cc1nnc(Sc2nc3c(c(=O)n(C)c(=O)n3C)n2Cc2ccccc2Cl)s1`, the IC50 is reported as > 50 µM (inactive). For `CCN(CC)S(=O)(=O)c1ccc(NC(=O)c2ccc(Sc3nncn3C)c([N+](=O)[O-])c2)cc1`, the IC50 was > 50 µM (inactive). Molecule `COCCCNC(=O)/C(C#N)=C/c1c(N2CCN(c3ccccc3)CC2)nc2ccccn2c1=O` has an IC50 of 25.9 µM. With `O=S(=O)(Cc1ccc(Cl)cc1)Nc1ccc2c(c1)OCO2` the IC50 was > 50 µM (inactive). With `Clc1ccc(-c2ncc3ccccn23)cc1` the IC50 was > 50 µM (inactive). `Nc1ccc(C2(c3ccc(N)cc3)CN3CCC2CC3)cc1` was tested, and the IC50 was > 50 µM (inactive). With `CC(=O)N1CCc2c(sc(NC(=O)CCS(=O)(=O)c3ccc(C)cc3)c2C(N)=O)C1` the IC50 was 30.7 µM. In the case of `NC(=O)CN(Cc1ccccc1)S(=O)(=O)c1ccc2c(c1)OCCO2`, the IC50 is reported as > 50 µM (inactive). Molecule `Cc1cccc(-n2c(O)c(/C=C/C=Nc3ccccc3)c(=O)[nH]c2=O)c1` has an IC50 of 3.6 µM. For `O=C1NC(=O)N(Cc2ccccc2)C(=O)/C1=C/N1CCCc2ccccc21`, the IC50 was > 50 µM (inactive). In the case of `CCOC(=O)c1c(NC(=O)Cc2ccccc2)sc2c1CCN(CC)C2`, the IC50 is reported as > 50 µM (inactive). For `C=CCn1c(O)c(C(C)=NCCc2ccccc2)c(=O)[nH]c1=O`, the IC50 was > 50 µM (inactive). For `Cc1ccc(C2C(C#N)=C(N)N(c3cccnc3)C3=C2C(=O)CCC3)c(C)c1` (centres undefined), the IC50 was > 50 µM (inactive). For `Cn1cnnc1SCC(=O)c1cc2ccccc2oc1=O`, the IC50 was > 50 µM (inactive). For `O=C(COC(=O)CSCC(=O)N1CCCCC1)Nc1ccc(Cl)cc1`, the IC50 was > 50 µM (inactive). With `Cc1cccc(/C=N/c2sc3c(c2C#N)CCN(Cc2ccccc2)C3)c1O` the IC50 was > 50 µM (inactive). `COCc1cc(CN2CCN(C)CC2)c(O)c2ncccc12` was tested, and the IC50 was > 50 µM (inactive). For `COC(=O)c1cc(=O)n2c(sc3ccccc32)c1C#N`, the IC50 was 1.32 µM. For `Cc1cnc(=O)[nH]c1SCC(=O)c1ccc(F)cc1`, the IC50 was > 50 µM (inactive). `O=c1[nH]c(-[n+]2ccc3ccccc3c2)c(/C=N/N=C(\[O-])c2ccccc2)s1` was tested, and the IC50 was > 50 µM (inactive). `Cc1cc(NC(=O)c2sc3ccccc3c2O)no1` was tested, and the IC50 was 26.3 µM. In the case of `Cc1ccc2cc(C#N)c(NCCNC(=O)C3CCC3)nc2c1C`, the IC50 is reported as > 50 µM (inactive). `O=C(/C=C/c1ccccc1[N+](=O)[O-])N1CCN(c2ccc(F)cc2)CC1` was tested, and the IC50 was > 50 µM (inactive). `N#C/C(=C\c1ccc(N2CCOCC2)o1)C(=O)N1CCOCC1` was tested, and the IC50 was 4.66 µM. With `CCOc1ccc(NC(=O)CN2C(=O)COc3ccc(Cl)cc32)cc1` the IC50 was > 50 µM (inactive). For `Clc1cccc(-c2ccc(C=Nc3ccc(N4CCOCC4)cc3)o2)c1Cl`, the IC50 was > 50 µM (inactive). In the case of `Cc1ccc(S(=O)(=O)c2cc3c(=O)n4cccc(C)c4nc3n(C3CCCCC3)c2=N)cc1`, the IC50 is reported as 1.2 µM. `Cc1ccc(NC(=O)COC(=O)Cc2ccsc2)c(C)c1` was tested, and the IC50 was > 50 µM (inactive). `O=C(Cn1nnc(-c2ccncc2)n1)NCCc1ccccc1` was tested, and the IC50 was > 50 µM (inactive). For `CCOC(=O)c1c(/N=C/c2ccc(C)cc2O)sc2c1CCN(C)C2`, the IC50 was > 50 µM (inactive). In the case of `Cc1cccc(Nc2nnc(SC/C(O)=C(\C#N)c3nc4ccccc4[nH]3)s2)c1C`, the IC50 is reported as > 50 µM (inactive). In the case of `COc1ccc(C(=O)/C=C/Nc2cccc(C)n2)cc1OC`, the IC50 is reported as 22.8 µM. In the case of `Cc1ccc(C(=O)NNC2CC(=O)N(c3ccc4c(c3)OCCO4)C2=O)cc1` (centres undefined), the IC50 is reported as > 50 µM (inactive). `N#C/C(=C/c1ccc(N2CCOCC2)o1)C(=O)N1CCOCC1` gave an IC50 of 4.46 µM. With `Oc1cccc(/C=N/Nc2cc(N3CCCC3)nc(N3CCCC3)n2)c1` the IC50 was > 50 µM (inactive). `O=c1cc(N2CCC(Cc3ccccc3)CC2)[nH]c(=O)n1C1CCCCC1` was tested, and the IC50 was > 50 µM (inactive). With `COc1ccccc1C1C(C(N)=O)=C(C)Nc2ncnn21` (centres undefined) the IC50 was > 50 µM (inactive). In the case of `O=C(CN1C(=O)NC2(CCCC2)C1=O)Nc1nc2c(F)cc(F)cc2s1`, the IC50 is reported as > 50 µM (inactive). For `C=CCN1C=CC(=CC=C(C#N)C#N)C=C1`, the IC50 was 29.1 µM. For `NS(=O)(=O)c1ccc(CCNC(=O)C(=O)c2c[nH]c3ccccc23)cc1`, the IC50 was > 50 µM (inactive). With `O=c1cn[nH]c2ccccc12` the IC50 was > 50 µM (inactive). Molecule `COc1ccc2cc(-c3nc4ccccc4n3C)c(=O)oc2c1` has an IC50 of 19.1 µM. For `C=CCn1c(C)c(C(C)=O)c(N2CCN(C(c3ccccc3)c3ccccc3)CC2)nc1=S`, the IC50 was > 50 µM (inactive). `O=c1[nH]c(Nc2ccccn2)cc2ccccc12` was tested, and the IC50 was > 50 µM (inactive). For `Oc1c(C=Nc2ccccc2)sc(=S)n1Cc1ccccc1`, the IC50 was > 50 µM (inactive). `CC(NC(=O)/C(C#N)=C/c1ccc(N2CCOCC2)cc1)c1ccccc1` (centres undefined) gave an IC50 of 20.2 µM. Molecule `Cc1ccc2nc(N3CCN(Cc4nnnn4Cc4ccccc4)CC3)c(C#N)cc2c1` has an IC50 of 23 µM. In the case of `C/C(=N\NC(=S)NCc1ccccc1)c1cccc(Br)c1`, the IC50 is reported as > 50 µM (inactive). Work on `Cc1ccc2nc(N3CCN(C(=O)c4cccs4)CC3)c(C#N)cc2c1` yielded an IC50 of 17.7 µM. With `Cc1cccc(C)c1NC(=O)C1c2cccc[n+]2CC(=O)N1Cc1cccs1` (centres undefined) the IC50 was > 50 µM (inactive). For `CN=C(Nc1cc(C)nn1CCC#N)c1ccccc1`, the IC50 was > 50 µM (inactive). `CCCCNC(=O)c1c(N)n(Cc2ccc3c(c2)OCO3)c2nc3ccccc3nc12` gave an IC50 of 4.95 µM. For `O=C(Nc1cccc(OC(=O)N2CCCCC2)c1)N1CCCCC1`, the IC50 was > 50 µM (inactive). `CCOC(=O)N1CCN(/C=C(\C#N)c2nc3ccccc3s2)CC1` was tested, and the IC50 was > 50 µM (inactive). With `O=C(NC1CC1)c1ccc2c(Cl)c3c(nc2c1)CCCC3` the IC50 was > 50 µM (inactive). In the case of `CCCn1c(SCC(=O)Nc2ccc(NC(C)=O)cc2)nc2c1c(=O)n(C)c(=O)n2C`, the IC50 is reported as > 50 µM (inactive). With `CCN(CC)c1ccc(/C=N/NC(=O)c2c(Cl)cnn2C)c(O)c1` the IC50 was 6.2 µM. In the case of `CCCC(=O)NNc1c2ccccc2nc2ccccc12`, the IC50 is reported as > 50 µM (inactive). `COCCNc1cc(C)nc2cc(-c3ccc(C)cc3)nn12` gave an IC50 of 5.2 µM. In the case of `Cn1c(=O)oc2cc(S(=O)(=O)NCCC(=O)N3CC=C(c4ccccc4)CC3)ccc21`, the IC50 is reported as > 50 µM (inactive). `CC(=O)c1cc(C#N)c(N2CC(C)OC(C)C2)nc1C` (centres undefined) was tested, and the IC50 was > 50 µM (inactive). With `CCN(CCO)C(=S)Nc1cc(C(=O)OC)ccc1C(=O)OC` the IC50 was > 50 µM (inactive). For `O=C(NC1CCCCCC1)C(=S)NCCc1ccccc1`, the IC50 was > 50 µM (inactive). For `CCOC(=O)CSc1nnc(CSc2nc3sc4c(c3c(=O)[nH]2)CCCC4)n1-c1ccccc1`, the IC50 was > 50 µM (inactive). For `CCOC(=O)c1c(NC(=O)CN2CCCc3ccccc32)sc(C(C)=O)c1C`, the IC50 was > 50 µM (inactive). `O=C1CC(/C=C/c2ccco2)=Nc2ccccc2N1` was tested, and the IC50 was > 50 µM (inactive). In the case of `CN(C)c1ccc(/C=C(\NC(=O)c2ccccc2)C(=O)NCc2ccncc2)cc1`, the IC50 is reported as > 50 µM (inactive). For `O=C(Cc1ccccc1)NNc1c2ccccc2nc2ccccc12`, the IC50 was > 50 µM (inactive). Work on `CCN1CCN(Cc2ccc(NC(=O)c3ccc(C)c(/C=C/c4cnc(Nc5cc(N6CCNCC6)nc(C)n5)cn4)c3)cc2C(F)(F)F)CC1` yielded an IC50 of 19.5 µM. `COc1ccc(-n2cnc3cc(NCc4cccs4)ccc32)cc1` was tested, and the IC50 was > 50 µM (inactive). For `O=c1[nH]c2cc(Br)cnc2nc1/C=C(\O)c1ccc(F)cc1`, the IC50 was > 50 µM (inactive). With `CCOC(=O)c1ccccc1NC(=O)COC(=O)C(CCSC)NC(=O)COc1ccccc1` (centres undefined) the IC50 was > 50 µM (inactive). For `CCN1CCc2nc(NC(=O)CC(c3ccccc3)c3ccccc3)sc2C1`, the IC50 was 23.2 µM. `CCC(c1nnnn1C1CCCC1)N1CCC(C(N)=O)CC1` (centres undefined) was tested, and the IC50 was > 50 µM (inactive). In the case of `O=C(c1cc2c(=O)n3ccccc3nc2s1)N1CCN(Cc2ccccc2)CC1`, the IC50 is reported as > 50 µM (inactive). With `CSc1nc(-c2ccc(N(C)C)cc2)c(C#N)c(=O)n1C` the IC50 was > 50 µM (inactive). With `Cc1ccc(-c2nc3cc(N)ccc3o2)cc1` the IC50 was > 50 µM (inactive). `O=C(CCN1CCC(c2ccc(Cl)s2)=N1)c1ccc(Cl)s1` was tested, and the IC50 was > 50 µM (inactive). In the case of `COc1ccc(OC(=O)C2CC(=O)N(c3ccc(C)cc3)C2)cc1` (centres undefined), the IC50 is reported as > 50 µM (inactive). Work on `CN(C)/C=N/c1nc2nccc(-c3cccs3)n2n1` yielded an IC50 of 38.5 µM. In the case of `Cc1ccc(/C=C/C(=O)Nc2cccc3ncccc23)o1`, the IC50 is reported as > 50 µM (inactive). In the case of `Cc1ccccc1Cn1nnc(-c2cccc(C(=O)O)c2)n1`, the IC50 is reported as > 50 µM (inactive). For `COc1ccc(OC)c(N(CC(=O)O)S(=O)(=O)c2ccc(OC)c(OC)c2)c1`, the IC50 was > 50 µM (inactive). With `COC(=O)c1c(NC(NC(=O)c2ccccc2)(C(F)(F)F)C(F)(F)F)sc2c1CCN(C)C2` the IC50 was 35.8 µM. In the case of `CCOC(=O)/C(C#N)=C1/C=Nc2ccccc2N1`, the IC50 is reported as > 50 µM (inactive). In the case of `NS(=O)(=O)c1ccc(N=Nc2c[nH]c(=O)c(O)c2)cc1`, the IC50 is reported as > 50 µM (inactive). In the case of `COc1ccc(CNc2ccc3c(c2)ncn3-c2ccccc2OC)cc1`, the IC50 is reported as > 50 µM (inactive). In the case of `O=C1NC(=O)N(Cc2ccccc2)C(=O)/C1=C\N1CCCc2ccccc21`, the IC50 is reported as > 50 µM (inactive). Molecule `COc1cc2cc(C(N)=O)c(N)nc2cc1OC` has an IC50 of 10.3 µM. `CCn1nc(NC(=O)c2ccccn2)c2cc3cccc(C)c3nc21` gave an IC50 of 2.68 µM. With `COc1ccccc1CNC(=O)Cn1ccsc1=N` the IC50 was > 50 µM (inactive). With `O=C(Cc1ccccc1C(=O)O)Nc1cccc2ccccc12` the IC50 was > 50 µM (inactive). For `COc1cc(NC(=O)C2CC2)c(OC)cc1NC(=O)c1ccco1`, the IC50 was > 50 µM (inactive). With `Cc1ccc(/C=C2/C(=O)c3ccc(C(=O)O)cc3C2=O)o1` the IC50 was > 50 µM (inactive). In the case of `CCC(=O)Nc1ccc(N/C(N)=N/c2nc(C)cc(C)n2)cc1`, the IC50 is reported as > 50 µM (inactive). `CC(C)(C)Nc1c2ccccc2nc2ccccc12` was tested, and the IC50 was > 50 µM (inactive). In the case of `CCOC(=O)C1=C(N)Oc2ccc3ccccc3c2C1c1ccc(O)c(OC)c1` (centres undefined), the IC50 is reported as > 50 µM (inactive). With `Cc1cc(C=C(C#N)C#N)ccc1N1CCCC1` the IC50 was > 50 µM (inactive).
